This note sets out measurements from patent US20250339443A1, “METHOD FOR TREATING OR PREVENTING CALCIUM RELEASE-ACTIVATED CALCIUM CHANNEL OR DISCOIDIN DOMAIN RECEPTOR 2 RELATED DISORDERS OR CONDITIONS” (LumiSTAR Biotechnology, Inc., priority 2023, published 2025).

In this test the target is T1, DDR2 (Homo sapiens, UniProt Q16832).
T1 construct: expressed in transfected cells; host or cells: HEK293T
T1 sequence (Q16832 22-855): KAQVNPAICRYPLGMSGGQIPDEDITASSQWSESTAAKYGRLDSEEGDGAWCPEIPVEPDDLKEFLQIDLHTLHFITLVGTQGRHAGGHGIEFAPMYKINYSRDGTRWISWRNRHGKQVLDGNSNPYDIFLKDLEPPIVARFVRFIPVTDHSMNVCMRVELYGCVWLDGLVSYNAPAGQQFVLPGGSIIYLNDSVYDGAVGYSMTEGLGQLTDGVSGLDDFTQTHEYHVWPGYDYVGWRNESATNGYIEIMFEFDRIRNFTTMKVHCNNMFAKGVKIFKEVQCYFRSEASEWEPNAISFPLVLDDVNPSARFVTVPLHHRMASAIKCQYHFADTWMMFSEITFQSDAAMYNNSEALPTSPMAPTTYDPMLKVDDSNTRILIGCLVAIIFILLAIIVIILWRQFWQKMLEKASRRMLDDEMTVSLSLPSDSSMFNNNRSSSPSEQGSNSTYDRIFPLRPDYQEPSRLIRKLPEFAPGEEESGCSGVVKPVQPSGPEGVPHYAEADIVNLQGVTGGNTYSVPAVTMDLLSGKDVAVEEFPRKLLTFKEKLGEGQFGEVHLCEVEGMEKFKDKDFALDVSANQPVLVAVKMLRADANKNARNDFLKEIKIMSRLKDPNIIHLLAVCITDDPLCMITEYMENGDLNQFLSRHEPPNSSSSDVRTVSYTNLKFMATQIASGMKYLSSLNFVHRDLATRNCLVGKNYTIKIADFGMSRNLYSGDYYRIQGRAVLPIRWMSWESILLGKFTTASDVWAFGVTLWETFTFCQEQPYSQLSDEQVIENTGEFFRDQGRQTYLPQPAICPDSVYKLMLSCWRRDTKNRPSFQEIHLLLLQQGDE
Put plainly: DDR2 activation (anti-phosphotyrosine Western blot) in HEK293T cells overexpressing DDR2, collagen-stimulated. In kind it is cell-based. To be noted: 10 μM pretreatment 30 minutes, then 50 μg/mL type I collagen 12 hours. As to the method:
FIG. 1A, FIG. 1B, FIG. 1C, FIG. 1D, FIG. 1E, FIG. 1F, FIG. 1G, FIG. 1H, FIG. 1I, FIG. 1J, FIG. 1K, FIG. 1L, FIG. 1M, and FIG. 1N show WRG-28 and atovaquone (Av) suppress the activation of DDR2 and calcium release-activated calcium (CRAC) channel. FIG. 1A indicates HEK293T cells were transiently overexpressed with DDR2 and then pretreated with different compounds (10 μM), including WRG-28, Av, donepezil hydrochloride (Dh), terazosin hydrochloride (Th), verapamil and flecainide for 30 minutes. Verapamil and flecainide were used as negative control here. After that, cells were treated with 50 μg/mL type I collagen for 12 hours. Cell lysates were harvested and subjected to Western blot analysis with antibodies against phosphotyrosine antibody (clone 4G10), DDR2, and β-actin. […] CRAC channel activity was evaluated by applying 1 μM thapsigargin (Thap.) in a calcium-free solution to deplete the endoplasmic reticulum calcium store, followed by the reintroduction of 2 mM Ca^2+ in an external solution. […] Further analyses are presented in FIG. 1I and FIG. 1J, where the second peak of each wave and rate of entry were analyzed. […] The Orai1 and Stim1 puncta in HEK293T cells overexpressed with CFP-Orai1/Stim1-mCherry were assessed. […]
Cell lysates were harvested in RIPA buffer (150 mM NaCl, 1 mM EGTA, 50 mM Tris pH 7.4, 10% glycerol, 1% Triton X-100, 1% sodium deoxycholate, 0.1% SDS, and protease inhibitor cocktail) and collected from culture dish with cell scrapers. […] The protein expression levels were assessed by specific primary antibodies, including antibodies against phosphotyrosine (clone 4G10; Millipore), DDR2 (R&D), α-SMA (Sigma), Collagen 1a1 (Boster), E-cadherin (BD Biosciences), SGLT2 (Proteintech), NHE1 (Novus) and β-actin (Clone C4, Millipore), followed by incubating with secondary antibodies conjugated with HRP and detected by ECL kit (Thermo Scientific).
To examine the impact of these compounds on DDR2 activation, HEK293T cells overexpressing DDR2 were pretreated with various compounds. […] The activation of DDR2 was evaluated using an anti-phosphotyrosine antibody. […]

As for `CCNS(=O)(=O)c1ccc(COc2ccc3nc4ccc(=O)cc-4oc3c2)cc1` [WRG-28], the “activation of DDR2 (phosphotyrosine)” value is on record as “suppress”.
